Reference: article PMC5841205, “Pharmacological targeting of apelin impairs glioblastoma growth” (Brain, 2017)
Positions of bridges follow the written chain, without caps; N, C: chain ends. Residues, ends and D or L forms follow the SMILES beside them.

Key:
Solubility in vehicles = type: physicochemical
Procedure: Conditions Solubility Solubility […]
saline (10%) + hydroxypropyl-β-cyclodextrin >0.69 >1.20 […]
A. MM54 compound (1 mg) was re-suspended in the different vehicles for 24h, RT, under gentle rotation. Solutions were analysed by HPLC and concentrations calculated using DMSO-re-suspended MM54 as standard. […]

[1] = Plasma pharmacokinetics after intraperitoneal administration; type: in vivo, mouse
Procedure: B. MM54 compound was solubilized in water and administered intraperitoneally (IP) at the dose of 3.6 mg/kg to healthy mice.
Mice (3/group) were sacrificed at 10 min, 30 min, 60 min, 2h, 4h, 6h, 8h and 24h post-injection. Plasma and brains were collected and further processed for LC-MS/MS analysis. B/P index is 0.24. AUC is area under the curve. n.d. stands for ‘not able to be

[2] = test system: panel of normal human and primary glioblastoma cell lines; test: Cell viability (UptiBlue), cell line panel; type: cell-based; conditions: MM54 2, 20 and 100 μM, 3 days; cardiomyocytes, HaCAT, CaCo2, hCMEC/D3, Jurkat, SH-SY5Y, SVGp12, glioblastoma lines
Procedure: Cell viability in response to MM54 was tested using the UptiBlue reagent (Interchim), a fluorometric/colorimetric growth indicator based on the detection of metabolic activity. Briefly, cells were seeded at a density of 2 × 10^3 per well, UptiBlue added at a concentration of 10% v/v and cells maintained at 37°C 5% CO2 until analysis. Absorbance was measured at Day 5 following treatment at 570 and 600 nm on a FLUOStar OPTIMA (BMG Labtech) plate reader, and the percentage of cell viability calculated according to the manufacturer’s instructions.
Figure 5 Pharmacological inhibition of APLNR by MM54 impairs the in vitro expansion of temozolomide-resistant GSCs. (A) Cell viability following treatment with DMSO, MM54 (2, 20 and 100 μM) or temozolomide (TMZ, 50 μM) was measured using UptiBlue in different cell types for 3 days. […] (B and C) Cell viability following treatment with DMSO or TMZ (100 μM) was measured using UptiBlue in GSCs #1, #4, #9, and #12 for 3 days. […] (D) GSC#1 viability was assessed following combined treatment with MM54 (0.2–20 μM) and TMZ (constant ratios TMZ:MM54 2.5:1, 5:1, and 10:1) in NS and human brain endothelial cell-conditioned medium (EC-CM) conditions. (E and F) Tumoursphere per field of view (fov) and ALDH activity were assessed in response to MM54 (0.2–100 μM) or TMZ (10–100 μM) treatment at Day 5. […]

C57Bl/6J female mice = test: Complete blood count; type: in vivo, mouse
Procedure: To test potential toxic effects of MM54 and MM193 in vivo, mice were administered 2 mg/kg of MM54, MM193 or vehicle bi-weekly for 4 weeks. At sacrifice, blood was taken for analysis and the heart, kidney, aorta and liver removed, weighed and fixed for histological analysis. For the glycaemic study, animals were starved for 6 h prior to sacrifice.
Total blood count DMSO MM54
Red blood cells (M/µl) 6,8 ± 0,9 7,5 ± 0,3
Mean corpuscular volume (fl) 46,4 ± 0,2 47,2 ± 0,4
Mean corpuscular haemoglobin (pg) 13,0 ± 0,0 13,2 ± 0,2
Mean corpuscular haemoglobin concentration (g/dl) 27,9 ± 0,1 27,9 ± 0,3 Red cell distribution width (%) 15,7 ± 0,2 16,1 ± 0,1
Table S5. Blood analysis after MM54 treatment
In order to test potential toxic effects of MM54 in vivo, C57Bl/6J female mice were administered 2 mg/kg of MM54 or DMSO vehicle, bi-weekly for 4 weeks. At sacrifice, blood was taken for analysis and the heart, kidney, aorta and liver removed, weighed and fixed for histological analysis (as shown in Figure S4). n=4 mice/group, 63 mean±SEM.

[3] = test system: heart, kidney and liver of mice; test: Histological and biochemical analysis of heart, kidney and liver; type: in vivo, mouse
Procedure: To test potential toxic effects of MM54 and MM193 in vivo, mice were administered 2 mg/kg of MM54, MM193 or vehicle bi-weekly for 4 weeks. At sacrifice, blood was taken for analysis and the heart, kidney, aorta and liver removed, weighed and fixed for histological analysis. For the glycaemic study, animals were starved for 6 h prior to sacrifice. […]
In order to test potential toxic effects of MM54 in vivo, C57Bl/6J female mice were administered 2 mg/kg of MM54
or DMSO vehicle, bi-weekly for 4 weeks. At sacrifice, blood was taken for analysis and the heart, kidney, aorta and
liver removed, weighed and fixed for histological analysis (as shown in Figure S4). n=4 mice/group, 63 mean±SEM.

[4] = saline (10%) + hydroxypropyl-β-cyclodextrin, 1 mg, 24h, RT, gentle rotation, HPLC
[5] = saline (10%) + kolliphor EL, 1 mg, 24h, RT, gentle rotation, HPLC
[6] = saline (15%) + kolliphor HS15 + PEG (10%) + ethanol (5%), 1 mg, 24h, RT, gentle rotation, HPLC
[7] = saline (15%) + kolliphor HS15, 1 mg, 24h, RT, gentle rotation, HPLC
[8] = saline (NaCl 0.9%), 1 mg resuspended, 24h, RT, gentle rotation, HPLC
[9] = mouse, plasma, healthy mice, IP 3.6 mg/kg in water, 3/group, LC-MS/MS
[10] = MM54 2 mg/kg bi-weekly, 4 weeks, female C57Bl/6J mice, n=4, mean±SEM

CC(C)C[C@@H]1NC(=O)[C@H](CCCNC(=N)N)NC(=O)[C@@H]2CCCN2C(=O)[C@H](CCCNC(=N)N)NC(=O)[C@@H](NC(=O)[C@H](Cc2c[nH]cn2)NC(=O)[C@H](CCCCN)NC(=O)[C@@H]2CSSC[C@H](N)C(=O)N[C@@H](CCCNC(=N)N)C(=O)N3CCC[C@H]3C(=O)N[C@@H](CCCNC(=N)N)C(=O)N[C@@H](CC(C)C)C(=O)N2)CSSC[C@@H](C(=O)O)NC1=O [MM54, cyclo(1–6)CRPRLC-KH-cyclo(9–14)CRPRLC] (H-CRPRLCKHCRPRLC-OH; disulfide 1-6, 9-14)
solubility (Solubility in vehicles; in the tested solutions (vehicles)): good solubility in the tested solutions
Solubility (mM), saline + hydroxypropyl-β-cyclodextrin (Solubility in vehicles; [4]): > 0.69 mM
Solubility (mg.ml-1), saline + hydroxypropyl-β-cyclodextrin (Solubility in vehicles; [4]): > 1.20 mg/mL
Solubility (mM), saline + kolliphor EL (Solubility in vehicles; [5]): > 0.60 mM
Solubility (mg.ml-1), saline + kolliphor EL (Solubility in vehicles; [5]): > 1.04 mg/mL
Solubility (mM), saline + kolliphor HS15 + PEG + ethanol (Solubility in vehicles; [6]): > 0.73 mM
Solubility (mg.ml-1), saline + kolliphor HS15 + PEG + ethanol (Solubility in vehicles; [6]): > 1.27 mg/mL
Solubility (mM), saline + kolliphor HS15 (Solubility in vehicles; [7]): > 0.69 mM
Solubility (mg.ml-1), saline + kolliphor HS15 (Solubility in vehicles; [7]): > 1.20 mg/mL
Solubility (mg.ml-1), saline (Solubility in vehicles; [8]): > 1.27 mg/mL
solubility at 24 h (Solubility in vehicles; [8]): > 0.73 mM
detection in plasma ([1]; healthy animals, intraperitoneal): detected in the plasma and the brain
Cmax (µM), plasma ([1]; healthy mice, IP 3.6 mg/kg in water, 3/group, LC-MS/MS): 0.6 µM
AUC [1, 9]: 1470 ng·h/mL
half-life [1, 9]: 2.37 ± 0.367 h
Cmax ([1]; mouse, plasma, healthy mice, IP 3.6 mg/kg in water, 3/group, LC-MS/MS, read-out: Cmax (µg.ml-1), plasma): 1.1 µg/mL
Tmax ([1]; mouse, plasma, healthy mice, IP 3.6 mg/kg in water, 3/group, LC-MS/MS, read-out: Time Cmax, plasma (converted)): 0.167 h
toxicity (viability) in cell line panel [2]: no overtly toxic effects on any of the cell lines tested
complete blood count vs vehicle (C57Bl/6J female mice; MM54 2 mg/kg bi-weekly for 4 weeks, healthy animals): no significant differences
Basophils (C57Bl/6J female mice; [10]): 0,19 ± 0,12 K/µl
Eosinophils (C57Bl/6J female mice; [10]): 0,52 ± 0,28 K/µl
Haemoglobin (C57Bl/6J female mice; [10]): 9,9 ± 0,6 g/dl
Hematocrit (C57Bl/6J female mice; [10]): 35,4 ± 1,9%
Lymphocytes (C57Bl/6J female mice; [10]): 7,50 ± 0,51 K/µl
Mean corpuscular haemoglobin (C57Bl/6J female mice; [10]): 13,2 ± 0,2 pg
Mean corpuscular haemoglobin concentration (C57Bl/6J female mice; [10]): 27,9 ± 0,3 g/dl
Mean corpuscular volume (C57Bl/6J female mice; [10]): 47,2 ± 0,4 fl
Mean platelet volume (C57Bl/6J female mice; [10]): 4,45 ± 0,16 fl
Monocytes (C57Bl/6J female mice; [10]): 0,42 ± 0,11 K/µl
Neutrophils (C57Bl/6J female mice; [10]): 2,56 ± 0,66 K/µl
Platelet (C57Bl/6J female mice; [10]): 301 ± 27 K/µl
Red blood cells (C57Bl/6J female mice; [10]): 7,5 ± 0,3 M/µl
Red cell distribution width (C57Bl/6J female mice; [10]): 16,1 ± 0,1%
histological and biochemical analysis of heart, kidney and liver ([3]; MM54 2 mg/kg bi-weekly for 4 weeks vs vehicle): revealed no differences between MM54-treated animals and vehicle controls
overt adverse effects in vivo ([3]; present dose (2 mg/kg), repeated administration): does not exert any overt adverse effects in vivo
